{"source": "PubChem BioAssay AID1259409", "about": "(Chemical Carcinogenesis Research Information System (CCRIS), 2018)", "origin": "cited, not measured here", "test_system": "rodent chemically induced tumor inhibition, incidence and multiplicity", "assay": "CCRIS tumor inhibitor studies", "note": "Where a SMILES comes first, the peptide text is derived from it.", "data": [{"smiles": "CCCCCCCc1ccco1", "values": [{"measurement": "tumour outcome (control, treated, inhibition, significance)", "setting": "Carcinogen: BENZO[A]PYRENE, 50-32-8, Dose [Inhibitor]: 0, 25 UMOL IN 0.2 ML COTTONSEED OIL 3/WK FOR 4 WK BEGINNING 1 DAY PRIOR TO FIRST CARCINOGEN DOSE AND TERMINATING 1 DAY A, Route [Inhibitor]: GAVAGE, Species: MOUSE, Strain/Sex: STRAIN-A/FEMALE, Target Tissue: Type of Lesion: FORESTOMACH: TUMOR, Dose [Carcinogen]: 1 MG 2/WK FOR 4 WK, Promoter: NONE USED", "result": "14/17 (82%), 10/15 (66%), 20%, not significant"}, {"measurement": "tumour outcome (control, treated, inhibition, significance)", "setting": "Carcinogen: BENZO[A]PYRENE, 50-32-8, Dose [Inhibitor]: 0, 25 UMOL IN 0.2 ML COTTONSEED OIL 3/WK FOR 4 WK BEGINNING 1 DAY PRIOR TO FIRST CARCINOGEN DOSE AND TERMINATING 1 DAY A, Route [Inhibitor]: GAVAGE, Species: MOUSE, Strain/Sex: STRAIN-A/FEMALE, Target Tissue: Type of Lesion: LUNG: TUMOR, Dose [Carcinogen]: 1 MG 2/WK FOR 4 WK, Promoter: NONE USED", "result": "17/17 (100%), 15/15 (100%), 0%, not significant"}, {"measurement": "tumour outcome (control, treated, inhibition, significance)", "setting": "Carcinogen: BENZO[A]PYRENE, 50-32-8, Dose [Inhibitor]: 0, 50 UMOL IN 0.2 ML COTTONSEED OIL 3/WK FOR 4 WK BEGINNING 1 DAY PRIOR TO FIRST CARCINOGEN DOSE AND TERMINATING 1 DAY A, Route [Inhibitor]: GAVAGE, Species: MOUSE, Strain/Sex: STRAIN-A/FEMALE, Target Tissue: Type of Lesion: FORESTOMACH: TUMOR, Dose [Carcinogen]: 1 MG 2/WK FOR 4 WK, Promoter: NONE USED", "result": "14/17 (82%), 9/12 (75%), 8%, not significant"}, {"measurement": "tumour outcome (control, treated, inhibition, significance)", "setting": "Carcinogen: BENZO[A]PYRENE, 50-32-8, Dose [Inhibitor]: 0, 50 UMOL IN 0.2 ML COTTONSEED OIL 3/WK FOR 4 WK BEGINNING 1 DAY PRIOR TO FIRST CARCINOGEN DOSE AND TERMINATING 1 DAY A, Route [Inhibitor]: GAVAGE, Species: MOUSE, Strain/Sex: STRAIN-A/FEMALE, Target Tissue: Type of Lesion: LUNG: TUMOR, Dose [Carcinogen]: 1 MG 2/WK FOR 4 WK, Promoter: NONE USED", "result": "17/17 (100%), 12/12 (100%), 0%, not significant"}]}, {"smiles": "O=c1ccc2cc(O[C@@H]3O[C@H](CO)[C@@H](O)[C@H](O)[C@H]3O)c(O)cc2o1", "values": [{"measurement": "outcome", "setting": "Carcinogen: 1,2-Dimethylhydrazine dihydrochloride (306-37-6), Dose [Inhibitor]: 0.05% in tap water beginning 7 d before first carcinogen administration to end of last carcinogen administration, animal, Route [Inhibitor]: Oral, Species: Rat, Strain/Sex: Fischer 344/male, Target Tissue: Type of Lesion: Colon: tumors, Dose [Carcinogen]: 20 mg/kg once a wk for 4 wk, Promoter: None", "result": "5 (31%) vs 10 (62.5% in positive controls) (p <0.05)"}, {"measurement": "outcome", "setting": "Carcinogen: 1,2-Dimethylhydrazine dihydrochloride (306-37-6), Dose [Inhibitor]: 0.05% in tap water beginning after last carcinogen administration to end of 16 wk study, Route [Inhibitor]: Oral, Species: Rat, Strain/Sex: Fischer 344/male, Target Tissue: Type of Lesion: Colon: tumors, Dose [Carcinogen]: 20 mg/kg once a wk for 4 wk, Promoter: None", "result": "9 (56.3%) vs 10 (62.5%) in positive controls; ns"}, {"measurement": "tumour outcome (control, treated, inhibition, significance)", "setting": "Carcinogen: BENZO[A]PYRENE, 50-32-8, Dose [Inhibitor]: 25 MG IN 0.1 ML DMSO 3/WK ADMINISTERED SIMULTANEOUSLY WITH CARCINOGEN FOR DURATION OF STUDY (STUDY DURATION: 368 D), Route [Inhibitor]: DERMAL, Species: MOUSE, Strain/Sex: ICR/FEMALE, Target Tissue: Type of Lesion: SKIN: PAPILLOMA, Dose [Carcinogen]: 5 UG IN 0.1 ML DMSO 3/WK FOR DURATION OF STUDY, Promoter: NONE USED", "result": "13/50 (26%), 0/50 (0%), 100%, not calculated"}, {"measurement": "tumour outcome (control, treated, inhibition, significance)", "setting": "Carcinogen: BENZO[A]PYRENE, 50-32-8, Dose [Inhibitor]: 25 MG IN 0.1 ML DMSO 3/WK ADMINISTERED SIMULTANEOUSLY WITH CARCINOGEN FOR DURATION OF STUDY (STUDY DURATION: 368 D), Route [Inhibitor]: DERMAL, Species: MOUSE, Strain/Sex: ICR/FEMALE, Target Tissue: Type of Lesion: SKIN: SQUAMOUS CARCINOMA, Dose [Carcinogen]: 5 UG IN 0.1 ML DMSO THAT ALSO CONTAINED AGENT, 3/WK, FOR DURATION OF STUDY, Promoter: NONE USED", "result": "6/50 (12%), 0/50 (0%), 100%, not calculated"}]}, {"smiles": "N[C@@H](CCC(=O)O)C(=O)N[C@@H](Cc1c[nH]c2ccccc12)C(=O)O", "note": "(H-Glu-Trp-OH)", "values": [{"measurement": "tumour outcome (control, treated, inhibition, significance)", "setting": "Carcinogen: NONE, Dose [Inhibitor]: 5 UG 1X/D 5 D/WK FOR 12 MONTHS (STUDY DURATION: 1200 D), Route [Inhibitor]: SUBCUTANEOUS, Species: RAT, Strain/Sex: LIO/FEMALE, Target Tissue: Type of Lesion: TUMORS", "result": "12/31 (38.7%), 10/40 (25.0%), 35%, not significant"}]}, {"smiles": "NC(=O)c1cccc(N)c1", "values": [{"measurement": "outcome", "setting": "Carcinogen: N-NITROSOBIS(2-HYDROXYPROPYL)AMINE, 53609-64-6, Dose [Inhibitor]: 0, 300 MG/KG 30 MIN AFTER EACH CARCINOGEN DOSE (STUDY DURATION: 35 WK), Route [Inhibitor]: INTRAPERITONEAL, Species: HAMSTER, Strain/Sex: SYRIAN/MALE, Target Tissue: Type of Lesion: BILE DUCT: CHOLANGIOCARCINOMA, Dose [Carcinogen]: 500 MG/KG IN 0.9% SALINE 1/WK FOR 5 WK, Promoter: NONE USED", "result": "0%, 7%"}, {"measurement": "outcome", "setting": "Carcinogen: N-NITROSOBIS(2-HYDROXYPROPYL)AMINE, 53609-64-6, Dose [Inhibitor]: 0, 300 MG/KG 30 MIN AFTER EACH CARCINOGEN DOSE (STUDY DURATION: 35 WK), Route [Inhibitor]: INTRAPERITONEAL, Species: HAMSTER, Strain/Sex: SYRIAN/MALE, Target Tissue: Type of Lesion: LIVER: HEPATOCELLULAR CARCINOMA, Dose [Carcinogen]: 500 MG/KG IN 0.9% SALINE 1/WK FOR 5 WK, Promoter: NONE USED", "result": "0%, 7%"}, {"measurement": "tumour outcome (control, treated, inhibition, significance)", "setting": "Carcinogen: N-NITROSOBIS(2-HYDROXYPROPYL)AMINE, 53609-64-6, Dose [Inhibitor]: 0, 300 MG/KG 30 MIN AFTER EACH CARCINOGEN DOSE (STUDY DURATION: 35 WK), Route [Inhibitor]: INTRAPERITONEAL, Species: HAMSTER, Strain/Sex: SYRIAN/MALE, Target Tissue: Type of Lesion: LUNG: ADENOCARCINOMA, Dose [Carcinogen]: 500 MG/KG IN 0.9% SALINE 1/WK FOR 5 WK, Promoter: NONE USED", "result": "8%, 0%, 100%, not calculated"}, {"measurement": "outcome", "setting": "Carcinogen: N-NITROSOBIS(2-HYDROXYPROPYL)AMINE, 53609-64-6, Dose [Inhibitor]: 0, 300 MG/KG 30 MIN AFTER EACH CARCINOGEN DOSE (STUDY DURATION: 35 WK), Route [Inhibitor]: INTRAPERITONEAL, Species: HAMSTER, Strain/Sex: SYRIAN/MALE, Target Tissue: Type of Lesion: LUNG: ADENOMA, Dose [Carcinogen]: 500 MG/KG IN 0.9% SALINE 1/WK FOR 5 WK, Promoter: NONE USED", "result": "0%, 7%"}, {"measurement": "tumour outcome (control, treated, inhibition, significance)", "setting": "Carcinogen: N-NITROSOBIS(2-HYDROXYPROPYL)AMINE, 53609-64-6, Dose [Inhibitor]: 0, 300 MG/KG 30 MIN AFTER EACH CARCINOGEN DOSE (STUDY DURATION: 35 WK), Route [Inhibitor]: INTRAPERITONEAL, Species: HAMSTER, Strain/Sex: SYRIAN/MALE, Target Tissue: Type of Lesion: PANCREAS: CARCINOMA, Dose [Carcinogen]: 500 MG/KG IN 0.9% SALINE 1/WK FOR 5 WK, Promoter: NONE USED", "result": "39%, 40%, -3%, not calculated"}, {"measurement": "outcome", "setting": "Carcinogen: N-NITROSOBIS(2-HYDROXYPROPYL)AMINE, 53609-64-6, Dose [Inhibitor]: 0, 600 MG/KG 30 MIN AFTER EACH CARCINOGEN DOSE (STUDY DURATION: 35 WK), Route [Inhibitor]: INTRAPERITONEAL, Species: HAMSTER, Strain/Sex: SYRIAN/MALE, Target Tissue: Type of Lesion: LIVER: HEPATOCELLULAR CARCINOMA, Dose [Carcinogen]: 500 MG/KG IN 0.9% SALINE 1/WK FOR 5 WK, Promoter: NONE USED", "result": "0%, 5%"}, {"measurement": "tumour outcome (control, treated, inhibition, significance)", "setting": "Carcinogen: N-NITROSOBIS(2-HYDROXYPROPYL)AMINE, 53609-64-6, Dose [Inhibitor]: 0, 600 MG/KG 30 MIN AFTER EACH CARCINOGEN DOSE (STUDY DURATION: 35 WK), Route [Inhibitor]: INTRAPERITONEAL, Species: HAMSTER, Strain/Sex: SYRIAN/MALE, Target Tissue: Type of Lesion: LUNG: ADENOCARCINOMA, Dose [Carcinogen]: 500 MG/KG IN 0.9% SALINE 1/WK FOR 5 WK, Promoter: NONE USED", "result": "8%, 0%, 100%, not calculated"}, {"measurement": "outcome", "setting": "Carcinogen: N-NITROSOBIS(2-HYDROXYPROPYL)AMINE, 53609-64-6, Dose [Inhibitor]: 0, 600 MG/KG 30 MIN AFTER EACH CARCINOGEN DOSE (STUDY DURATION: 35 WK), Route [Inhibitor]: INTRAPERITONEAL, Species: HAMSTER, Strain/Sex: SYRIAN/MALE, Target Tissue: Type of Lesion: LUNG: ADENOMA, Dose [Carcinogen]: 500 MG/KG IN 0.9% SALINE 1/WK FOR 5 WK, Promoter: NONE USED", "result": "0%, 5%"}, {"measurement": "tumour outcome (control, treated, inhibition, significance)", "setting": "Carcinogen: N-NITROSOBIS(2-HYDROXYPROPYL)AMINE, 53609-64-6, Dose [Inhibitor]: 0, 600 MG/KG 30 MIN AFTER EACH CARCINOGEN DOSE (STUDY DURATION: 35 WK), Route [Inhibitor]: INTRAPERITONEAL, Species: HAMSTER, Strain/Sex: SYRIAN/MALE, Target Tissue: Type of Lesion: PANCREAS: CARCINOMA, Dose [Carcinogen]: 500 MG/KG IN 0.9% SALINE 1/WK FOR 5 WK, Promoter: NONE USED", "result": "39%, 25%, 36%, not calculated"}]}, {"smiles": "CCN(CC)CCCCCCCCOC(=O)c1cc(OC)c(OC)c(OC)c1", "values": [{"measurement": "tumour outcome (control, treated, inhibition, significance)", "setting": "Carcinogen: 7,12-DIMETHYLBENZ[A]ANTHRACENE, 57-97-6, Dose [Inhibitor]: 0, 1.1 UMOL 1/WK FOR 27 WK APPLIED 1 HR POST EACH PROMOTER DOSE (STUDY DURATION: 27 WK), Route [Inhibitor]: DERMAL, Species: MOUSE, Strain/Sex: SENCAR/FEMALE, Target Tissue: Type of Lesion: SKIN: PAPILLOMA, Dose [Carcinogen]: 25 NMOL ONCE, Promoter: CHRYSAROBIN, 491-58-7", "result": "85%, 73%, 14%, not significant"}, {"measurement": "tumour outcome (control, treated, inhibition, significance)", "setting": "Carcinogen: 7,12-DIMETHYLBENZ[A]ANTHRACENE, 57-97-6, Dose [Inhibitor]: 0, 4.4 UMOL 1/WK FOR 27 WK APPLIED 1 HR POST EACH PROMOTER DOSE (STUDY DURATION: 27 WK), Route [Inhibitor]: DERMAL, Species: MOUSE, Strain/Sex: SENCAR/FEMALE, Target Tissue: Type of Lesion: SKIN: PAPILLOMA, Dose [Carcinogen]: 25 NMOL ONCE, Promoter: CHRYSAROBIN, 491-58-7", "result": "85%, 82%, 4%, not significant"}]}]}
